Assay results taken from publication PMC6429214, “Design, Synthesis and Biological Evaluation of Isoxazole-Based CK1 Inhibitors Modified with Chiral Pyrrolidine Scaffolds” (Molecules, 2019).

Experiments:
Test in all cases: 33PanQinase panel
Type in all cases: biochemical
[1] = biological target: T1, CSF1-R (Homo sapiens, UniProt P07333); settings: read-out: Residual Activity (%)
T1 construct: purchased ProQinase
Method in brief: (§1)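 Selectivity was profiled over 320 wild-type kinases at 1 µM inhibitor. Remaining activity relative to DMSO control was derived from 33P radiometric activity measurement.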

[2] = biological target: T2, FES (Homo sapiens, UniProt P07332); settings: read-out: Residual Activity (%)
T2 construct: purchased ProQinase
Method in brief: as §1

[3] = biological target: T3, SRPK1 (Homo sapiens, UniProt Q96SB4); settings: SRPK1, 1 µM; read-out: Residual Activity (%)
T3 construct: purchased ProQinase
Method in brief: as §1

[4] = biological target: T4, SYK aa1-635 (Homo sapiens, UniProt P43405); settings: SYK aa1-635, 1 µM; read-out: Residual Activity (%)
T4 construct: purchased ProQinase
Method in brief: as §1

[5] = biological target: T5, NEK7 (Homo sapiens, UniProt Q8TDX7); settings: NEK7, 1 µM; read-out: Residual Activity (%)
T5 construct: purchased ProQinase
Method in brief: as §1

[6] = biological target: T6, CDK6/CycD3 (Homo sapiens, UniProt Q00534); settings: CDK6/CycD3, 1 µM; read-out: Residual Activity (%)
T6 construct: purchased ProQinase
Method in brief: as §1

[7] = biological target: T7, MAPKAPK2 (Homo sapiens, UniProt P49137); settings: MAPKAPK2, 1 µM; read-out: Residual Activity (%)
T7 construct: purchased ProQinase
Method in brief: as §1

[8] = biological target: T8, DAPK2 (Homo sapiens, UniProt Q9UIK4); settings: DAPK2, 1 µM; read-out: Residual Activity (%)
T8 construct: purchased ProQinase
Method in brief: as §1

[9] = biological target: T9, MEKK2 (Homo sapiens, UniProt Q9Y2U5); settings: MEKK2, 1 µM; read-out: Residual Activity (%)
T9 construct: purchased ProQinase
Method in brief: as §1

[10] = biological target: T10, PKC-delta (Homo sapiens, UniProt Q05655); settings: read-out: Residual Activity (%)
T10 construct: purchased ProQinase
Method in brief: as §1

[11] = biological target: T11, p38-gamma (Homo sapiens, UniProt P53778); settings: read-out: Residual Activity (%)
T11 construct: purchased ProQinase
Method in brief: as §1

[12] = biological target: T12, LTK (Homo sapiens, UniProt P29376); settings: read-out: Residual Activity (%)
T12 construct: purchased ProQinase
Method in brief: as §1

[13] = biological target: T13, CAMK4 (Homo sapiens, UniProt Q16566); settings: CAMK4, 1 µM; read-out: Residual Activity (%)
T13 construct: purchased ProQinase
Method in brief: as §1

[14] = biological target: T14, INS-R (Homo sapiens, UniProt P06213); settings: read-out: Residual Activity (%)
T14 construct: purchased ProQinase
Method in brief: as §1

[15] = biological target: T15, JNK2 (Homo sapiens, UniProt P45984); settings: JNK2, 1 µM; read-out: Residual Activity (%)
T15 construct: purchased ProQinase
Method in brief: as §1

[16] = biological target: T16, NEK1 (Homo sapiens, UniProt Q96PY6); settings: NEK1, 1 µM; read-out: Residual Activity (%)
T16 construct: purchased ProQinase
Method in brief: as §1

[17] = biological target: T17, FYN (Homo sapiens, UniProt P06241); settings: read-out: Residual Activity (%)
T17 construct: purchased ProQinase
Method in brief: as §1

[18] = biological target: T18, TBK1 (Homo sapiens, UniProt Q9UHD2); settings: TBK1, 1 µM; read-out: Residual Activity (%)
T18 construct: purchased ProQinase
Method in brief: as §1

[19] = biological target: T19, BRSK2 (Homo sapiens, UniProt Q8IWQ3); settings: BRSK2, 1 µM; read-out: Residual Activity (%)
T19 construct: purchased ProQinase
Method in brief: as §1

[20] = biological target: T20, PHKG2 (Homo sapiens, UniProt P15735); settings: PHKG2, 1 µM; read-out: Residual Activity (%)
T20 construct: purchased ProQinase
Method in brief: as §1

[21] = biological target: T21, RIPK2 (Homo sapiens, UniProt O43353); settings: RIPK2, 1 µM; read-out: Residual Activity (%)
T21 construct: purchased ProQinase
Method in brief: as §1

[22] = biological target: T22, JNK1 (Homo sapiens, UniProt P45983); settings: JNK1, 1 µM; read-out: Residual Activity (%)
T22 construct: purchased ProQinase
Method in brief: as §1

[23] = biological target: T23, FGF-R4 (Homo sapiens, UniProt P22455); settings: FGF-R4, 1 µM; read-out: Residual Activity (%)
T23 construct: purchased ProQinase
Method in brief: as §1

[24] = biological target: T24, MUSK (Homo sapiens, UniProt O15146); settings: read-out: Residual Activity (%)
T24 construct: purchased ProQinase
Method in brief: as §1

[25] = biological target: T25, VEGF-R1 (Homo sapiens, UniProt P17948); settings: VEGF-R1, 1 µM; read-out: Residual Activity (%)
T25 construct: purchased ProQinase
Method in brief: as §1

[26] = biological target: T26, TGFB-R1 (Homo sapiens, UniProt P36897); settings: TGFB-R1, 1 µM; read-out: Residual Activity (%)
T26 construct: purchased ProQinase
Method in brief: as §1

[27] = biological target: T27, MKK6 S207D/T211D** (Homo sapiens, UniProt P52564, S207D/T211D); settings: read-out: Residual Activity (%)
T27 construct: purchased ProQinase
Method in brief: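 Percent residual kinase activity versus DMSO control, from a radiometric 33PanQinase assay at 1 µM compound.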

[28] = biological target: T28, GSK3-alpha (Homo sapiens, UniProt P49840); settings: read-out: Residual Activity (%)
T28 construct: purchased ProQinase
Method in brief: as §1

[29] = biological target: T29, CLK2 (Homo sapiens, UniProt P49760); settings: CLK2, 1 µM; read-out: Residual Activity (%)
T29 construct: purchased ProQinase
Method in brief: as §1

[30] = biological target: T30, p38-beta (Homo sapiens, UniProt Q15759); settings: read-out: Residual Activity (%)
T30 construct: purchased ProQinase
Method in brief: as §1

T3 sequence (Q96SB4 whole entry): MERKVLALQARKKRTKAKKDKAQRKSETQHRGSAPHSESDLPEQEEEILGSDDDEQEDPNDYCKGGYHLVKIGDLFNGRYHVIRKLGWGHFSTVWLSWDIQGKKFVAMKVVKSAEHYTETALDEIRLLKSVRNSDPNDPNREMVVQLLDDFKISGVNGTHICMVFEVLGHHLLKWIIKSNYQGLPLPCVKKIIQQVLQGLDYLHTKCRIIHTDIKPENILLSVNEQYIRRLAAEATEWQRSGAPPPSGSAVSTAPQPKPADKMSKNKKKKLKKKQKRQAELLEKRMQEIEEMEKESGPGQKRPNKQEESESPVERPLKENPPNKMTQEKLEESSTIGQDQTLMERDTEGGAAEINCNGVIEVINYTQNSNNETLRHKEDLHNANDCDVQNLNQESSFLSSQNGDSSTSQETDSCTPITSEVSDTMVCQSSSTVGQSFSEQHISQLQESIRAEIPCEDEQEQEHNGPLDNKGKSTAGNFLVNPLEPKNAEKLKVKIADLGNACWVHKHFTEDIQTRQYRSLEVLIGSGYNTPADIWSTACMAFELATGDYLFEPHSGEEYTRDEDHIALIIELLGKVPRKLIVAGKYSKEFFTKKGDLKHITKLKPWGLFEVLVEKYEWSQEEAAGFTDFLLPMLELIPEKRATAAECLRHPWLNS
T24 sequence (O15146 24-869): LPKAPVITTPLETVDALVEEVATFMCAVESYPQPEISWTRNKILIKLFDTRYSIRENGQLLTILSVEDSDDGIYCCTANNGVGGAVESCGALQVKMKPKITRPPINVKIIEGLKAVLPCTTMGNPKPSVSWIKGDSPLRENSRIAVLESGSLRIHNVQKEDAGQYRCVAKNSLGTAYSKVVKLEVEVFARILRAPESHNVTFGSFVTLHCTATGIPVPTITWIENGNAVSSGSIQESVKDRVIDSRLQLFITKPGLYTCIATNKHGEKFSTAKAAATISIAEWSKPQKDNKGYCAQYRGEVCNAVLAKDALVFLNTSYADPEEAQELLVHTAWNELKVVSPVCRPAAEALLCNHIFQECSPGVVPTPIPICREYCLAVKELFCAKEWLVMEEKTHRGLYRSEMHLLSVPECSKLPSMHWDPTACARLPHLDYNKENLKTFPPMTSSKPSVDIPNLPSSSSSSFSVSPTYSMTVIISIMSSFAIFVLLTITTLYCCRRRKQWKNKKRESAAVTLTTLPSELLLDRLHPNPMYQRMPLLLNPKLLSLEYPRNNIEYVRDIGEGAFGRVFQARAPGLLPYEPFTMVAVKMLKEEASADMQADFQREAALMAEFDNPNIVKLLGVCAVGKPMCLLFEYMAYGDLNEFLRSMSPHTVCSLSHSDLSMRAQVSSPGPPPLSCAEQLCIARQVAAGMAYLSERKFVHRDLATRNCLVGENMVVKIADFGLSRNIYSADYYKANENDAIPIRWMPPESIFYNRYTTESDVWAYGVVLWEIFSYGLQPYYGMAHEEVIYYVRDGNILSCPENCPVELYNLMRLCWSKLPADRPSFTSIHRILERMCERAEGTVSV
T10 sequence (Q05655 whole entry): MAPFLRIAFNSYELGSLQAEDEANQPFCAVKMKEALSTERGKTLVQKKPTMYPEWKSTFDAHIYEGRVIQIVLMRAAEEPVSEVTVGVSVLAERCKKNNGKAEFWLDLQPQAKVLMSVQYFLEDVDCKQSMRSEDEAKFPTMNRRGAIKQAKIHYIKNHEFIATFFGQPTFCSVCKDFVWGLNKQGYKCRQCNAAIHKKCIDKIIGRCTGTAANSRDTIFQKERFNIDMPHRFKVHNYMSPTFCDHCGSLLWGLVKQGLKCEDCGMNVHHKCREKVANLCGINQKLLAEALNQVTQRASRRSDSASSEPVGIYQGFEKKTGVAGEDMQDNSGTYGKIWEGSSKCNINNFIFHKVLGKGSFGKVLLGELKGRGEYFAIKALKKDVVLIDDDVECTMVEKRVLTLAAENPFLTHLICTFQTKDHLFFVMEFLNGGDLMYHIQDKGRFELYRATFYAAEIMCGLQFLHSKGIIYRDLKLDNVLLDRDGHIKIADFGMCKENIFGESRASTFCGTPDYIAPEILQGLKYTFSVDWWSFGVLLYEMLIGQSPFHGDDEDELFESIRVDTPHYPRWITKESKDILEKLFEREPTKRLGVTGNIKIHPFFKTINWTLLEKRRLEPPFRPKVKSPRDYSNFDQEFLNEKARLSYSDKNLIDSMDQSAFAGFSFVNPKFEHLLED
T29 sequence (P49760 whole entry): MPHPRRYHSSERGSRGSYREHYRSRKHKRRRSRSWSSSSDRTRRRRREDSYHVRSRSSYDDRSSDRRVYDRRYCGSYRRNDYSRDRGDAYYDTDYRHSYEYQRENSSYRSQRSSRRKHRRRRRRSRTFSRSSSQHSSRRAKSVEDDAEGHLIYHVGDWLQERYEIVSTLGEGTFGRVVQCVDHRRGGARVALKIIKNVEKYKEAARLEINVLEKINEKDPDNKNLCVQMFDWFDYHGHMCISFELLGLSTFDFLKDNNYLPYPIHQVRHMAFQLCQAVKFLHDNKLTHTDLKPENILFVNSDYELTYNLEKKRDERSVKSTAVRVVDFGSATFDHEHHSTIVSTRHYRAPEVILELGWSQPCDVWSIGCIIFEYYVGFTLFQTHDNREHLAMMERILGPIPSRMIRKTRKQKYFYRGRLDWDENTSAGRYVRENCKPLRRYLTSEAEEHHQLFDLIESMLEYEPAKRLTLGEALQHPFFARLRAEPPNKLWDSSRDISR
T9 sequence (Q9Y2U5 whole entry): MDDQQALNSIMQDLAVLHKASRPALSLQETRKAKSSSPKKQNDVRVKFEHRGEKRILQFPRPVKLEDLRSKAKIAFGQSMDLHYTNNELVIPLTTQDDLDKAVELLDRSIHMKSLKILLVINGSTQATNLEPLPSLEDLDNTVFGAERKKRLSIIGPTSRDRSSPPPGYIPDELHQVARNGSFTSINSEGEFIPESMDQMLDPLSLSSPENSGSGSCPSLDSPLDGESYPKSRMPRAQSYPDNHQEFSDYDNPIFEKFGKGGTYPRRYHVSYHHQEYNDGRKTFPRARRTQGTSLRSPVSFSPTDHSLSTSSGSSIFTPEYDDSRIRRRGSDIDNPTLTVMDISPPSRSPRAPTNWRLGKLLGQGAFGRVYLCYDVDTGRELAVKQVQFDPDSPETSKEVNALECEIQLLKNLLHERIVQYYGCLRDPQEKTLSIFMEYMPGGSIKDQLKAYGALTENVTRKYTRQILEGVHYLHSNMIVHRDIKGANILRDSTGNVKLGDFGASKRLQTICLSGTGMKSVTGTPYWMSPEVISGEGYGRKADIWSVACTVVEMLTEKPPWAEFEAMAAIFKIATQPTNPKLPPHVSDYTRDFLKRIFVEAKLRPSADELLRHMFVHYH
T22 sequence (P45983 whole entry): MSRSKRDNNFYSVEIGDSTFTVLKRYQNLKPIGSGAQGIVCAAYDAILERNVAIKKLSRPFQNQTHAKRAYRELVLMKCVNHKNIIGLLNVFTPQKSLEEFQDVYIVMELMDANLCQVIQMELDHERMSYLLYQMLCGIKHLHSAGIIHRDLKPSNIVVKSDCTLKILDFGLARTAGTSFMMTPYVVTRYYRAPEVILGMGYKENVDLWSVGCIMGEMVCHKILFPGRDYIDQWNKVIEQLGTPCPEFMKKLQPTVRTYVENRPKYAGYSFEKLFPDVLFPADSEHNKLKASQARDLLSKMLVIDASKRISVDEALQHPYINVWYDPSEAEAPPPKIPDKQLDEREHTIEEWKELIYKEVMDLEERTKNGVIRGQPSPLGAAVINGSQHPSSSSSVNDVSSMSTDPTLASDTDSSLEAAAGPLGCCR
T15 sequence (P45984 whole entry): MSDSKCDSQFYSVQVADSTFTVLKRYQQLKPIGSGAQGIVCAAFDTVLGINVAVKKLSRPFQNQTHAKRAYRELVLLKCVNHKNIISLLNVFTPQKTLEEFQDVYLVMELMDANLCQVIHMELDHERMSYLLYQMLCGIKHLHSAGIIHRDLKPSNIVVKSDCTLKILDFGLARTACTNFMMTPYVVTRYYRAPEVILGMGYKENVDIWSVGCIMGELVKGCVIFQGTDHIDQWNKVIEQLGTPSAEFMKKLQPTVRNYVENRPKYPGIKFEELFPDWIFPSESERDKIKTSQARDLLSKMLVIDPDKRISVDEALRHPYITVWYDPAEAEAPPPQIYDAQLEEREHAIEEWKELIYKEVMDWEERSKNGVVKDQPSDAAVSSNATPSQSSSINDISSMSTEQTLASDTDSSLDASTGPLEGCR
T5 sequence (Q8TDX7 whole entry): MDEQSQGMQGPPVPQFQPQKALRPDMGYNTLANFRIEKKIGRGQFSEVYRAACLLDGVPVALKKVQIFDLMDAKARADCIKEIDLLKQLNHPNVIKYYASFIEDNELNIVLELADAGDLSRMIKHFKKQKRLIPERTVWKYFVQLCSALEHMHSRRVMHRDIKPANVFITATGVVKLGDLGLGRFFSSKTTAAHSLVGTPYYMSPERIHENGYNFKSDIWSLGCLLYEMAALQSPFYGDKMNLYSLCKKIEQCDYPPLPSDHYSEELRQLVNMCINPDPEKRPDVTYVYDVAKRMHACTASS
T28 sequence (P49840 whole entry): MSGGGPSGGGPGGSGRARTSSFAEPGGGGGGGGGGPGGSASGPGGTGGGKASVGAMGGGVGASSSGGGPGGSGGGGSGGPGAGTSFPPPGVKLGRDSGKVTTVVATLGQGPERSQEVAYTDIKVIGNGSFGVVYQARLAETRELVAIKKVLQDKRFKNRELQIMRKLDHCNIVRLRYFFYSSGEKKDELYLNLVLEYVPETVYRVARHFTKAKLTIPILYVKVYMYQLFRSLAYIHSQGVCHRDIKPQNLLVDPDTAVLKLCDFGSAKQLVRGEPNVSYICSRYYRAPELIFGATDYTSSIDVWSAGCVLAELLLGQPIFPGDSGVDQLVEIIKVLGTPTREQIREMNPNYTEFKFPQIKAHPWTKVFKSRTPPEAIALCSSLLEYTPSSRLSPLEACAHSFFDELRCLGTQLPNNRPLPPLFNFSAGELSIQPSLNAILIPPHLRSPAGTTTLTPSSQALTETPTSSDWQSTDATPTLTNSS

COc1ccc(-c2cc(C(=O)Nc3cc(-c4c(-c5ccc(F)cc5)noc4C(C)C)ccn3)n(CC3NCC(O)C3O)c2)cc1 (stereo not drawn) [29d]
remaining activity at 1 µM [1]: 108%
remaining activity at 1 µM [2]: 120%
remaining activity at 1 µM [3]: 105%
remaining activity at 1 µM [4]: 148%
remaining activity at 1 µM [5]: 116%
remaining activity at 1 µM [6]: 98%
remaining activity at 1 µM [7]: 96%
remaining activity at 1 µM [8]: 96%
remaining activity at 1 µM [9]: 111%
remaining activity at 1 µM [10]: 100%
remaining activity at 1 µM [11]: 99%
remaining activity at 1 µM [12]: 98%
remaining activity at 1 µM [13]: 102%
remaining activity at 1 µM [14]: 101%
remaining activity at 1 µM [15]: 40%
remaining activity at 1 µM [16]: 101%
remaining activity at 1 µM [17]: 156%
remaining activity at 1 µM [18]: 113%
remaining activity at 1 µM [19]: 90%
remaining activity at 1 µM [20]: 93%
remaining activity at 1 µM [21]: 108%
remaining activity at 1 µM [22]: 63%
remaining activity at 1 µM [23]: 125%
remaining activity at 1 µM [24]: 97%
remaining activity at 1 µM [25]: 119%
remaining activity at 1 µM [26]: 102%
remaining activity at 1 µM [27]: 91%
remaining activity at 1 µM [28]: 103%
remaining activity at 1 µM [29]: 116%
remaining activity at 1 µM [30]: 74%
